# Reference: patent publication US20260109721A1, “IONIZABLE CATIONIC LIPIDS INCORPORATING SILICON: SYNTHESIS AND LNP FORMULATION” (priority 2023, published 2026)
# Like-named read-outs stand apart in the source and are kept apart here.
# Key:
# [1] = Encapsulation efficiency of loaded LNPs, RiboGreen RNA assay (Method A); type: physicochemical
# Procedure, shortened: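 Encapsulation determined by RiboGreen fluorescence (excitation 480, emission 525) comparing Triton X-100–lysed and intact LNP wells, duplicates, after 10 min at 37° C and cooling to room temperature. Sample stocks ~4-7 μg/mL RNA in TE buffer; concentration from RNA standard curve.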
# HepG2 cell line = test: In vitro toxicity study on HepG2 cell line (resazurin, viability and IC50); type: cell-based, human; conditions: for Viability (%) at different lipid concentrations, mean: HepG2 cells, 48 h post-treatment, relative to ethanol vehicle controls; for IC50: Homo sapiens, read-out: IC50 value, μM (on HepG2 cell)
# Procedure, shortened: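 Resazurin read-out (ex 530/em 580 nm, 5 h at 37 °C) measured lipid toxicity 48 h after dosing HepG2 cells (1000/well) at 6.25–800 μM. Viability was normalised to ethanol vehicle, and IC50 was derived from concentration-response curves.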
# [2] = encapsulation efficiency of mRNA-loaded LNP, Method A, RiboGreen
# [3] = lipid toxicity, HepG2, 48 h post-treatment, resazurin, 6.25-800 μM
SMILES,EE (%) [1],"Viability (%) at different lipid concentrations, mean (HepG2 cell line; 6.25 μM lipid, resazurin)","Viability (%) at different lipid concentrations, mean (HepG2 cell line; 12.5 μM lipid, resazurin)","Viability (%) at different lipid concentrations, mean (HepG2 cell line; 25 μM lipid, resazurin)","Viability (%) at different lipid concentrations, mean (HepG2 cell line; 50 μM lipid, resazurin)","Viability (%) at different lipid concentrations, mean (HepG2 cell line; 100 μM lipid, resazurin)","Viability (%) at different lipid concentrations, mean (HepG2 cell line; 200 μM lipid, resazurin)","Viability (%) at different lipid concentrations, mean (HepG2 cell line; 400 μM lipid, resazurin)","Viability (%) at different lipid concentrations, mean (HepG2 cell line; 800 μM lipid, resazurin)","IC50 (HepG2 cell line; HepG2, 48 h)","EE (%) [1, 2]",IC50 (HepG2 cell line; [3])
"CCCCC/C=C\C/C=C\CCCCCCCCOC(CCCCCCC/C=C\C/C=C\CCCCC)O[Si](C)(C)OCCCCCCN(C)C (centres unmarked) [Example 79, (20Z,23Z)-10-((8Z,11Z)-heptadeca-8,11-dien-1-yl)-N,N,8,8-tetramethyl-7,9,11-trioxa-8-silanonacosa-20,23-dien-1-amine]",83%,100.82%,98.88%,99.57%,101.89%,99.49%,76.57%,52.32%,34.54%,473 µM,,
"CCCCC/C=C\C/C=C\CCCCCCCCO[Si](C)(C)OC(CCCCCCC/C=C\C/C=C\CCCCC)OCCCN(C)C (centres unmarked) [Example 80, (17Z,20Z)-5-((8Z,11Z)-heptadeca-8,11-dien-1-yl)-N,N,7,7-tetramethyl-4,6,8-trioxa-7-silahexacosa-17,20-dien-1-amine]",83%,98.8%,98.68%,98.64%,99.05%,96.68%,69.13%,0.79%,0.71%,223 µM,,
"CCCCCCCC/C=C\CCCCCCCCOC(=O)C(C)(C)CC(OCCCCCCCC/C=C\CCCCCCCC)O[Si](C)(C)OCCCCCCN(CCO)CCO (centres unmarked) [Example 84, (Z)-octadec-9-en-1-yl 1-hydroxy-3-(2-hydroxyethyl)-11,11,15,15-tetramethyl-13-(((Z)-octadec-9-en-1-yl)oxy)-10,12-dioxa-3-aza-11-silahexadecan-16-oate]",,87.8%,99.3%,101.8%,104.5%,103.5%,90.4%,82.2%,88.5%,,90%,> 800 µM
"CCCCCCCC/C=C\CCCCCCCCOC(=O)C(C)(C)CC(OCCCCCCCC/C=C\CCCCCCCC)O[Si](C)(C)OCCCCCCN1CCOCC1 (centres unmarked) [Example 85, (Z)-octadec-9-en-1-yl 4-((dimethyl((6-morpholinohexyl)oxy)silyl)oxy)-2,2-dimethyl-4-(((Z)-octadec-9-en-1-yl)oxy)butanoate]",,97.0%,101.0%,101.4%,102.1%,101.5%,101.9%,103.2%,80.1%,,90%,> 800 µM
"CCCCCCCC/C=C\CCCCCCCCOC(=O)C(C)(C)CC(OCCCCCCCC/C=C\CCCCCCCC)O[Si](C)(C)OCCCCCCN(CCCCO)CCCCO (centres unmarked) [Example 86, (Z)-octadec-9-en-1-yl 18-hydroxy-14-(4-hydroxybutyl)-2,2,6,6-tetramethyl-4-(((Z)-octadec-9-en-1-yl)oxy)-5,7-dioxa-14-aza-6-silaoctadecanoate]",,95.4%,107.0%,108.7%,105.4%,95.4%,77.2%,57.1%,42.8%,,87%,564 µM
"CCCCCCCC/C=C\CCCCCCCCOC(=O)C(C)(C)CC(OCCCCCCCC/C=C\CCCCCCCC)O[Si](C)(C)OCCCCCCN1CCCCC1 (centres unmarked) [Example 87, (Z)-octadec-9-en-1-yl 4-((dimethyl((6-(piperidin-1-yl)hexyl)oxy)silyl)oxy)-2,2-dimethyl-4-(((Z)-octadec-9-en-1-yl)oxy)butanoate]",,101.2%,97.0%,97.0%,97.8%,97.6%,102.1%,73.7%,35.2%,625 µM,89%,
"CCCCCCCC/C=C\CCCCCCCCOC(=O)C(C)(C)CC(OCCCCCCCC/C=C\CCCCCCCC)O[Si](C)(C)OCCCCCCN(CCCO)CCCO (centres unmarked) [Example 88, (Z)-octadec-9-en-1-yl 1-hydroxy-4-(3-hydroxypropyl)-12,12,16,16-tetramethyl-14-(((Z)-octadec-9-en-1-yl)oxy)-11,13-dioxa-4-aza-12-silaheptadecan-17-oate]",,109.1%,112.0%,109.5%,99.6%,77.4%,57.3%,36.6%,21.0%,,87%,272 µM
"CCCCCCCC/C=C\CCCCCCCCOC(=O)C(C)(C)CC(OCCCCCCCC/C=C\CCCCCCCC)O[Si](C)(C)OCCCCCCN1CCCCC1CO (centres unmarked) [Example 89, (Z)-octadec-9-en-1-yl 4-((((6-(2-(hydroxymethyl)piperidin-1-yl)hexyl)oxy)dimethylsilyl)oxy)-2,2-dimethyl-4-(((Z)-octadec-9-en-1-yl)oxy)butanoate]",,101.4%,97.9%,97.9%,102.8%,108.3%,106.6%,99.5%,91.6%,,89%,> 800 µM
"CCCCCCCC/C=C\CCCCCCCCOC(=O)C(C)(C)CC(OCCCCCCCC/C=C\CCCCCCCC)O[Si](C)(C)OCCCCCCN1CCCC1CO (centres unmarked) [Example 90, (Z)-octadec-9-en-1-yl 4-((((6-(2-(hydroxymethyl)pyrrolidin-1-yl)hexyl)oxy)dimethylsilyl)oxy)-2,2-dimethyl-4-(((Z)-octadec-9-en-1-yl)oxy)butanoate]",,101.5%,96.4%,96.6%,100.5%,105.8%,104.9%,93.1%,84.0%,,87%,> 800 µM
"CCCCCCCC/C=C\CCCCCCCCOC(=O)C(C)(C)CC(OCCCCCCCC/C=C\CCCCCCCC)O[Si](C)(C)OCCCCCCN(C)CCCCO (centres unmarked) [Example 91, (Z)-octadec-9-en-1-yl 18-hydroxy-2,2,6,6,14-pentamethyl-4-(((Z)-octadec-9-en-1-yl)oxy)-5,7-dioxa-14-aza-6-silaoctadecanoate]",,100.2%,98.8%,108.4%,112.4%,103.1%,88.0%,61.2%,44.1%,,88%,625 µM
"CCCCCCCC/C=C\CCCCCCCCOC(=O)C(C)(C)CC(OCCCCCCCC/C=C\CCCCCCCC)O[Si](C)(C)OCCCCCCN(C)CC(O)CO (centres unmarked) [Example 92, (Z)-octadec-9-en-1-yl 1,2-dihydroxy-4,12,12,16,16-pentamethyl-14-(((Z)-octadec-9-en-1-yl)oxy)-11,13-dioxa-4-aza-12-silaheptadecan-17-oate]",,105.5%,104.3%,110.6%,109.4%,98.9%,80.7%,63.8%,49.2%,,89%,691 µM
